The values below come from patent US20090176718A1, “Berry Preparations For Treatment Of Diabetes And Metabolic Syndrome” (priority 2007, published 2009).

Marks after values point to notes of the source that are not given here.

Experiment [1] relates to male C57bl/6J mice fed very high-fat diet (diet induced diabetes). Briefly: Blood glucose levels in food restricted high-fat-diet (diabetic) C57BL/6J mice after gavage, vehicle 66% LABRASOL
The format is in vivo, mouse. To be noted: for Hypoglycemic activity (in words): 300 mg/kg; for % decrease from 0 h / Blood glucose, 6 hours: 6 hours. The text has this: The C57B6 mouse strain becomes diabetic when maintained on a high fat diet, it therefore serves as a model for Type 2 diabetes. A screen for treatments effective against diet induced diabetes utilizes male C57BL/6J mice (4-5 week old, 19-20 g) fed a high-fat diet (60% fat in kcal) for 10-16 weeks. This diet induces obesity and diabetes in this mouse strain. Extracts that induce a 20-40% decline in the blood glucose level are used for further testing.
Five-week-old male C57bl/6J mice were purchased from Jackson Labs (Maine) and were acclimatized for 1 week before being randomly assigned into the experimental groups. The animals were housed four to a cage with free access to water in a room with a 12:12 hour light-dark cycle (7:00 AM-7:00 PM), a temperature of 24±1° C., and the animals were weighed weekly. During the acclimatization period, each animal was fed a regular diet ad libitum. At 6-weeks old, the mice were randomly divided into two groups: low fat or very high fat fed groups. The mice continued to receive either a low fat diet (LFD) or very high-fat diet (VHFD) for a 12-week period. The high-fat diet food was purchased from Research Diets Inc., and the nutrition content of very high-fat diet food was similar to that of the low fat diet food except that carbohydrates were lower (70 kcal % vs. 20 kcal %) and the addition of more lard (10 kcal % vs. 60 kcal %) in the diet. Body weights were measured weekly, and at every other week blood was collected for blood glucose analysis. […] Animals fed with LFD were also fasted for 4 hours. […] As a positive control, metformin (Fortamet®, Gluocphase®, Glumetza®, Romet®) was administered instead of plant extract at a dose of 300 mg/kg (MET300). […] Without being limited by theory, metformin may act by increasing insulin sensitivity via increasing the utilization of glucose. The experimental protocols were approved by Rutgers University Institutional Care and Use Committee and followed federal, and state laws.
All treatments were provided by gavage with a vehicle of 66% LABRASOL®, a lipid-based self-emulsifying excipient. Abbreviations for Table 1 are as follows: FC=crude extract, F2=anthocyanin enriched extract, FT=treated extract to promote chalcone formation, metformin is a drug used as a positive control. The results were as follows:
All treatments were provided by gavage with a vehicle of 66% LABRASOL®. Abbreviations for Table 2 are as follows: FC=crude extract, F2=anthocyanin-enriched extract, FT=treated extract to promote chalcone formation, metformin is a drug used as a positive control; *:p<0.05; **:p<0.01; ***:p<0.001 vs 0 hours; c:p<0.05; cc:p<0.01; ccc:p<0.001 vs LABRASOL®. The results were as follows:
All treatments were provided by gavage with a vehicle of 66% LABRASOL®. Abbreviations for Table 3 are as follows: FT=treated extract to promote chalcone formation, F2=anthocyanin enriched extract, MBCE=maqui berry crude extract, MBA=maqui berry anthocyanin-rich extract, metformin is a drug used as a positive control; *:p<0.05; **:p<0.01; ***:p<0.001 vs. 0 hours; c:p<0.05; cc:p<0.01; ccc:p<0.001 vs. LABRASOL®.
The hypoglycemic effects of delphinidin-3-glucoside (Dp 3-glc) and malvidin-3-glucoside (Mv-3-glc) relative to blueberry anthocyanin-enriched extracts and metformin in insulin resistant C57bl/6J mice were investigated. Malvidin glycosides are the predominant anthocyanins of the lowbush blueberry extracts. Delphinidin-3-glucoside likely is a major component of the blueberry extracts. It is reported to be the active hypoglycemic compound from the leaves of Vaccinium species. The animals were maintained on a high fat diet and food restricted 4 hours prior to treatment by gavage. The extracts and metformin were formulated with 66% Labrasol as the delivery vehicle

Experiment [2] concerns food restricted C57B6 mice. Put plainly: Blood glucose levels in food restricted C57B6 mice using water as the gavage vehicle. The format is in vivo, mouse. Conditions: Table 5, 300 mg/kg gavage. The protocol:
Five-week-old male C57bl/6J mice were purchased from Jackson Labs (Maine) and were acclimatized for 1 week before being randomly assigned into the experimental groups. The animals were housed four to a cage with free access to water in a room with a 12:12 hour light-dark cycle (7:00 AM-7:00 PM), a temperature of 24±1° C., and the animals were weighed weekly. During the acclimatization period, each animal was fed a regular diet ad libitum. At 6-weeks old, the mice were randomly divided into two groups: low fat or very high fat fed groups. The mice continued to receive either a low fat diet (LFD) or very high-fat diet (VHFD) for a 12-week period. The high-fat diet food was purchased from Research Diets Inc., and the nutrition content of very high-fat diet food was similar to that of the low fat diet food except that carbohydrates were lower (70 kcal % vs. 20 kcal %) and the addition of more lard (10 kcal % vs. 60 kcal %) in the diet. Body weights were measured weekly, and at every other week blood was collected for blood glucose analysis. Animals fed with VHFD were fasted for 4 hours and fed orally (gavage) with plant extracts (500 mg/kg) or […] to test efficacy of plant extracts. Animals fed with LFD were also fasted for 4 hours. Blood glucose readings are made 0 hours, 3 hours, and 6 hours after treatment (animals were fasted during the testing period). As a positive control, metformin (Fortamet®, Gluocphase®, Glumetza®, Romet®) was administered instead of plant extract at a dose of 300 mg/kg (MET300). […] Without being limited by theory, metformin may act by increasing insulin sensitivity via increasing the utilization of glucose. The experimental protocols were approved by Rutgers University Institutional Care and Use Committee and followed federal, and state laws.
The MBA was active at both 500 mg/kg and 250 mg/kg. Therefore, the use of Labrasol as a bioenhancing agent dose was not necessary with the MBA. A robust response was seen when Labrasol was not included in the dosing vehicle.

The mark [3] stands for this setting: Example 3, 300 mg/kg by gavage with Labrasol, insulin resistant C57bl/6J mice.
Setting [4] is: Table 4, insulin resistant C57bl/6J mice, 300 mg/kg gavage in 66% Labrasol.
Where [5] appears, read: Table 2, 300 mg/kg gavage in 66% LABRASOL
The mark [6] stands for this setting: Table 3, 250 mg/kg gavage in 66% LABRASOL

Consider `OC[C@H]1O[C@@H](Oc2cc3c(O)cc(O)cc3[o+]c2-c2cc(O)c(O)c(O)c2)[C@H](O)[C@@H](O)[C@@H]1O` [Dp 3-glc, delphinidin-3-glucoside], for which the “Hypoglycemic activity (in words)” value in experiment [1] (setting [3]) is “did not significantly show hypoglycemic activity”. Further, the “Hypoglycemic activity (in words)” value in experiment [1] (Example 3, 300 mg/kg by gavage with Labrasol, insulin resistant C57bl/6J mice, listed as delphinidin-3-O-glucoside) is given as “did not have significant hypoglycemic activity”. In experiment [1] (setting [4]), the “Blood glucose, 0 hours” value is 214 ± 7.4; the “% decrease from 0 h” value is reported as −17 ± 5.7%; the “Blood glucose, 6 hours” value is on record as 186.6 ± 15.5.

With `CN(C)C(=N)N=C(N)N` [Metformin, metformin], the “Blood glucose, 0 hours” value came out at 226 ± 18 in experiment [1] (Table 1, 300 mg/kg gavage in 66% LABRASOL); 207 ± 18 in experiment [1] (setting [5]); 249 ± 29 in experiment [1] (setting [6]); 206.7 ± 11 in experiment [1] (setting [4]); 189 ± 11.1 in experiment [2] (0 hours). Also, in experiment [1] (Table 1, 300 mg/kg gavage in 66% LABRASOL, 2 hours), the “Blood glucose, 2 hours” value is on record as 183 ± 25. In experiment [1] (Table 1, 300 mg/kg gavage in 66% LABRASOL, 4 hours), the “Blood glucose, 4 hours” value is on record as 165 ± 29. Besides, the “% decrease from 0 hours” value is −27% in experiment [1] (Table 1, 300 mg/kg gavage in 66% LABRASOL, last time point 4 hours); −38% in experiment [1] (Table 2, 300 mg/kg gavage in 66% LABRASOL, last time point 5 hours); −14% in experiment [1] (Table 3, 250 mg/kg gavage in 66% LABRASOL, last time point 6 hours); −43.4 ± 7.8% in experiment [2] (6 hours). Further, the “Blood glucose, 3 hours” value in experiment [1] (setting [5]) is recorded as 211 ± 15; in experiment [1] (setting [6]), 273 ± 32. In addition, the “Blood glucose, 5 hours” value in experiment [1] (Table 2, 300 mg/kg gavage in 66% LABRASOL, 5 hours) is 128 ± 17**^cc. Besides, the “Blood glucose, 6 hours” value in experiment [1] (setting [6]) was determined as 214 ± 39; in experiment [1] (setting [4]) it was 108 ± 8.9; in experiment [2] (6 hours), 106.8 ± 14.2. The “% decrease from 0 h” value in experiment [1] (setting [4]) is recorded as −49 ± 4.5%.

`COc1cc(-c2[o+]c3cc(O)cc(O)c3cc2O[C@@H]2O[C@H](CO)[C@@H](O)[C@H](O)[C@H]2O)cc(OC)c1O` [Mv-3-glc, malvidin-3-glucoside]: in experiment [1] (Example 3, 300 mg/kg by gavage with Labrasol), the “Lowered blood glucose levels by” value amounted to 34%. Besides, the “Hypoglycemic activity (in words)” value in experiment [1] (setting [3]) is listed as “comparable to the hypoglycemic activity of the phenolics-rich extract at a dose of 500 mg/kg”. The “Hypoglycemic activity (in words)” value in experiment [1] (Example 3, 300 mg/kg by gavage with Labrasol, insulin resistant C57bl/6J mice, listed as malvidin glucoside) was “comparable to the metformin positive control at 300 mg/kg”. Besides, in experiment [1] (setting [4]), the “Blood glucose, 0 hours” value was determined as 204 ± 20.8; the “% decrease from 0 h” value is reported as −31 ± 6.3%; the “Blood glucose, 6 hours” value was 134.4 ± 8.3.
